In PMC3520603 (Journal of biomolecular screening, 2012):
Structures can show the parent of a compound that is named as a salt. Where two headings read alike, the source gives them in different places.

Key:
Format in all cases: binding
[1] = molecular target: T1, RVFV nucleocapsid N protein (Rift valley fever virus, UniProt P21700)
[2] = molecular target: T1, RVFV nucleocapsid N protein; assay: biochemical
[3] = molecular target: T1, RVFV nucleocapsid N protein; assay: biochemical; remark: listed apart in the source

T1 sequence (P21700 whole entry, looked up): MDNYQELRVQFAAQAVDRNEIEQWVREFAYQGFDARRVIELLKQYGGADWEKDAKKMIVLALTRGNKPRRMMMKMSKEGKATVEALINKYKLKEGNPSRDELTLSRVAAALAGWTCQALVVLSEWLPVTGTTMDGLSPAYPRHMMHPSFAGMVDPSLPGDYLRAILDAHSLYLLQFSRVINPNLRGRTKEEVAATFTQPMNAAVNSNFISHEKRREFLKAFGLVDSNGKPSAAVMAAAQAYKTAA

Compound | Percent Inhibition HTS [1] [%] | Avg. Hill slope [2] | IC50 [2] [µM] | Avg. Hill slope [3] | IC50 [3] [µM]
Br.CN=c1nc(-c2ccccc2)n(-c2ccccc2)s1 [S 4063] | 50.3 | −1.64 | 6.7 ± 2.9 | – | –
CCN(CC)CCCC(C)Nc1c2ccc(Cl)cc2nc2ccc(OC)cc12 (stereo not shown) [quinacrine dihydrochloride] | 65.7 | – | – | −2.99 | 162 ± 26
Cc1ccc(C(=O)Nc2ccc(S(=O)(=O)O)c3cc(S(=O)(=O)O)cc(S(=O)(=O)O)c23)cc1NC(=O)c1cccc(NC(=O)Nc2cccc(C(=O)Nc3cc(C(=O)Nc4ccc(S(=O)(=O)O)c5cc(S(=O)(=O)O)cc(S(=O)(=O)O)c45)ccc3C)c2)c1 [suramin sodium salt] | 93.3 | −2.76 | 16.3 ± 7.3 | – | –
CC[C@@]1(O)C(=O)OCc2c1cc1n(c2=O)Cc2cc3c(CN(C)C)c(O)ccc3nc2-1 [topotecan] | 85.9 | – | – | – | –
